Assays:
ducksalad = test: Test B flooded paddy test; type: in vivo, Heteranthera limosa; conditions: 500 g ai/ha, Flood; scale of 0 to 100 where 0 is no effect and 100 is complete control
In short: (§1)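 First, plants reach the 2-leaf stage; next, pots are flooded to 3 cm and compound is delivered into the water; finally, after 13 to 15 greenhouse days at constant depth, injury is graded visually from 0 to 100 against controls.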

corn = test: Test A pre-/postemergence herbicide test; type: in vivo, Zea mays; conditions: Postemergence
In short: (§2)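 Seeds sown in loam soil/sand blend received a preemergence directed soil spray of test chemical in non-phytotoxic solvent with surfactant; postemergence plants (2–10 cm, one- to two-leaf stage) were sprayed with the same formulation. After about 10 days in greenhouse, injury was rated visually versus untreated controls, 0 (no effect) to 100 (complete control).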

barnyardgrass [1] = test: Test B flooded paddy test; type: in vivo, Echinochloa crus-galli; conditions: 500 g ai/ha, Flood; scale of 0 to 100 where 0 is no effect and 100 is complete control
In short: as §1

ryegrass, Italian = test: Test A pre-/postemergence herbicide test; type: in vivo, Lolium multiflorum
In short: as §2

sedge, umbrella = test: Test B flooded paddy test; type: in vivo, Cyperus difformis; conditions: 500 g ai/ha, Flood; scale of 0 to 100 where 0 is no effect and 100 is complete control
In short: as §1

giant foxtail = test: Test A pre-/postemergence herbicide test; type: in vivo, Setaria faberii
In short: as §2

rice = test: Test B flooded paddy test; type: in vivo, Oryza sativa; conditions: 500 g ai/ha, Flood; scale of 0 to 100 where 0 is no effect and 100 is complete control
In short: as §1

kochia = test: Test A pre-/postemergence herbicide test; type: in vivo, Kochia scoparia
In short: as §2

galium = test: Test A postemergence herbicide test; type: in vivo, Galium aparine
In short: (§3)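 Visual injury rating, 0 (no effect) to 100 (complete control), versus untreated controls ~10 days after treatment. Postemergence spray applied at one- to two-leaf stage, plants 2–10 cm tall, potted in loam soil/sand. Greenhouse-held.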

pigweed = test: Test A pre-/postemergence herbicide test; type: in vivo, Amaranthus retroflexus
In short: as §2

barnyardgrass [2] = test: Test A pre-/postemergence herbicide test; type: in vivo, Echinochloa crus-galli
In short: as §2

wheat = test: Test A pre-/postemergence herbicide test; type: in vivo, Triticum aestivum; conditions: Postemergence
In short: as §2

blackgrass = test: Test A postemergence herbicide test; type: in vivo, Alopecurus myosuroides
In short: as §3

ragweed = test: Test A pre-/postemergence herbicide test; type: in vivo, Ambrosia elatior
In short: as §2

[3] = 125 g ai/ha, 0 to 100 scale, 0 is no effect, 100 is complete control
[4] = 500 g ai/ha, 0 to 100 scale (0 no effect, 100 complete control)
[5] = Postemergence, 125 g ai/ha, visual rating on 0 to 100 scale (0 no effect, 100 complete control), approx. 10 days
[6] = Postemergence, 500 g ai/ha, 0 to 100 scale (0 no effect, 100 complete control)
[7] = Preemergence, 125 g ai/ha, 0 to 100 scale where 0 is no effect and 100 is complete control
[8] = preemergence, 500 g ai/ha, 0 to 100 scale, 0 is no effect and 100 is complete control
[9] = Postemergence, 125 g ai/ha, 0 to 100 scale, 0 is no effect, 100 is complete control
[10] = 125 g ai/ha, visual rating on 0 to 100 scale (0 no effect, 100 complete control), approx. 10 days
[11] = 125 g ai/ha, visual rating, 0 to 100 scale, 0 no effect, 100 complete control, approximately 10 days, preemergence
[12] = Preemergence, 500 g ai/ha, visual rating on 0 to 100 scale (0 no effect, 100 complete control)

Question: What does the source list for `CC(C)N1CC(c2ccc(F)cc2)C(C(=O)Nc2cccc(F)c2F)C1=O` (stereo not drawn) [Compound 276]?
Answer: Plant response rating, Ducksalad (ducksalad): 30; Plant response rating, Corn (corn; [3]): 0; Plant response rating, Corn (corn; [4]): 0; Plant response rating, Barnyardgrass (barnyardgrass [1]): 0; Plant response rating, Ryegrass, Italian (ryegrass, Italian; [5]): 0; Plant response rating, Ryegrass, Italian (ryegrass, Italian; [6]): 0; Plant response rating, Ryegrass, Italian (ryegrass, Italian; [7]): 0; Plant response rating, Ryegrass, Italian (ryegrass, Italian; [8]): 0; Plant response rating, Sedge, Umbrella (sedge, umbrella): 0; Plant response rating, Foxtail, Giant (giant foxtail; [9]): 0; Plant response rating, Foxtail, Giant (giant foxtail; [6]): 0; Plant response rating, Foxtail, Giant (giant foxtail; [7]): 0; Plant response rating, Foxtail, Giant (giant foxtail; [8]): 0; Plant response rating, Rice (rice): 0; Plant response rating, Kochia (kochia; [9]): 0; Plant response rating, Kochia (kochia; [6]): 0; Plant response rating, Kochia (kochia; [7]): 0; Plant response rating, Kochia (kochia; [8]): 0; Plant response rating, Galium (galium; [3]): 0; Plant response rating, Galium (galium; [4]): 0; Plant response rating, Pigweed (pigweed; [5]): 0; Plant response rating, Pigweed (pigweed; [6]): 0; Plant response rating, Pigweed (pigweed; [7]): 0; Plant response rating, Pigweed (pigweed; [8]): 0; Plant response rating, Barnyardgrass (barnyardgrass [2]; [9]): 0; Plant response rating, Barnyardgrass (barnyardgrass [2]; [6]): 0; Plant response rating, Barnyardgrass (barnyardgrass [2]; [7]): 0; Plant response rating, Barnyardgrass (barnyardgrass [2]; [8]): 0; Plant response rating, Wheat (wheat; [10]): 0; Plant response rating, Wheat (wheat; [4]): 0; Plant response rating, Blackgrass (blackgrass; [3]): 0; Plant response rating, Blackgrass (blackgrass; [4]): 0; Plant response rating, Ragweed (ragweed; [5]): 0; Plant response rating, Ragweed (ragweed; [6]): 0; Plant response rating, Ragweed (ragweed; [7]): 0; Plant response rating, Ragweed (ragweed; [8]): 0

Question: `O=C1NCC(c2cccc(C(F)F)c2)C1C(=O)Nc1cccc(F)c1F` (racemic) [Compound 164] was tested. Which “Plant response rating, Ducksalad” value (ducksalad) did it give?
Answer: Its value is 100.

Question: And the “Plant response rating, Corn” value (corn; [3])?
Answer: Its value is 50.

Question: What about the “Corn plant response rating (0 to 100 scale, 0 is no effect, 100 is complete control)” value (corn; 500 g ai/ha) of the same compound?
Answer: Its value is 80.

Question: What about the “Plant response rating, Barnyardgrass” value (barnyardgrass [1]) of the same compound?
Answer: The value was 80.

Question: And the “Plant response rating, Ryegrass, Italian” value (ryegrass, Italian; [11])?
Answer: The value was 20.

Question: And the “Plant response rating, Ryegrass, Italian” value (ryegrass, Italian; [9])?
Answer: The value was 40.

Question: What about the “Ryegrass, Italian plant response rating (0 to 100 scale, 0 is no effect, 100 is complete control)” value (ryegrass, Italian; Postemergence, 500 g ai/ha) of the same compound?
Answer: Its value is 50.

Question: What about the “Plant response rating, Ryegrass, Italian” value (ryegrass, Italian; [8]) of the same compound?
Answer: The value was 50.

Question: What about the “Plant response rating, Sedge, Umbrella” value (sedge, umbrella) of the same compound?
Answer: The value was 0.

Question: What about the “Plant response rating, Foxtail, Giant” value (giant foxtail; [11]) of the same compound?
Answer: The value was 90.

Question: And the “Plant response rating, Foxtail, Giant” value (giant foxtail; [9])?
Answer: Its value is 70.

Question: And the “Foxtail, Giant plant response rating (0 to 100 scale, 0 is no effect, 100 is complete control)” value (giant foxtail; Postemergence, 500 g ai/ha)?
Answer: The value was 90.

Question: And the “Plant response rating, Foxtail, Giant” value (giant foxtail; preemergence, 500 g ai/ha, 0 to 100 scale)?
Answer: Its value is 90.

Question: What about the “Plant response rating, Rice” value (rice) of the same compound?
Answer: The value was 20.

Question: What about the “Plant response rating, Kochia” value (kochia; [11]) of the same compound?
Answer: Its value is 60.

Question: And the “Plant response rating, Kochia” value (kochia; [9])?
Answer: Its value is 60.

Question: And the “Kochia plant response rating (0 to 100 scale, 0 is no effect, 100 is complete control)” value (kochia; Postemergence, 500 g ai/ha)?
Answer: Its value is 70.

Question: And the “Plant response rating, Kochia” value (kochia; [8])?
Answer: Its value is 80.

Question: What about the “Plant response rating, Galium” value (galium; [3]) of the same compound?
Answer: The value was 50.

Question: What about the “Galium plant response rating (0 to 100 scale, 0 is no effect, 100 is complete control)” value (galium; 500 g ai/ha) of the same compound?
Answer: Its value is 60.

Question: What about the “Plant response rating, Pigweed” value (pigweed; [11]) of the same compound?
Answer: The value was 50.

Question: What about the “Plant response rating, Pigweed” value (pigweed; [9]) of the same compound?
Answer: Its value is 20.

Question: And the “Pigweed plant response rating (0 to 100 scale, 0 is no effect, 100 is complete control)” value (pigweed; Postemergence, 500 g ai/ha)?
Answer: Its value is 60.

Question: And the “Plant response rating, Pigweed” value (pigweed; [8])?
Answer: The value was 70.

Question: What about the “Plant response rating, Barnyardgrass” value (barnyardgrass [2]; [11]) of the same compound?
Answer: The value was 90.

Question: And the “Plant response rating, Barnyardgrass” value (barnyardgrass [2]; [9])?
Answer: The value was 90.

Question: What about the “Barnyardgrass plant response rating (0 to 100 scale, 0 is no effect, 100 is complete control)” value (barnyardgrass [2]; Postemergence, 500 g ai/ha) of the same compound?
Answer: The value was 90.

Question: And the “Plant response rating, Barnyardgrass” value (barnyardgrass [2]; preemergence, 500 g ai/ha, 0 to 100 scale (0 no effect, 100 complete control))?
Answer: The value was 90.

Question: And the “Plant response rating, Wheat” value (wheat; [3])?
Answer: Its value is 40.

Question: What about the “Wheat plant response rating (0 to 100 scale, 0 is no effect, 100 is complete control)” value (wheat; 500 g ai/ha) of the same compound?
Answer: The value was 80.

Question: What about the “Plant response rating, Blackgrass” value (blackgrass; [3]) of the same compound?
Answer: The value was 50.

Question: And the “Blackgrass plant response rating (0 to 100 scale, 0 is no effect, 100 is complete control)” value (blackgrass; 500 g ai/ha)?
Answer: The value was 70.

Question: What about the “Plant response rating, Ragweed” value (ragweed; [11]) of the same compound?
Answer: Its value is 20.

Question: What about the “Plant response rating, Ragweed” value (ragweed; [9]) of the same compound?
Answer: Its value is 20.

Question: And the “Ragweed plant response rating (0 to 100 scale, 0 is no effect, 100 is complete control)” value (ragweed; Postemergence, 500 g ai/ha)?
Answer: Its value is 50.

Question: And the “Plant response rating, Ragweed” value (ragweed; [8])?
Answer: Its value is 60.

Question: Which results are given for `O=C1NCC(c2ccc(Br)c(Br)c2)C1C(=O)Nc1ccccc1F` (stereo not drawn) [Compound 339]?
Answer: Plant response rating, Ducksalad (ducksalad): 65; Plant response rating, Corn (corn; [10]): 0; Plant response rating, Corn (corn; [4]): 0; Plant response rating, Barnyardgrass (barnyardgrass [1]): 40; Plant response rating, Ryegrass, Italian (ryegrass, Italian; [5]): 0; Plant response rating, Ryegrass, Italian (ryegrass, Italian; [7]): 0; Ryegrass, Italian plant response rating (ryegrass, Italian; [12]): 20; Plant response rating, Sedge, Umbrella (sedge, umbrella): 0; Plant response rating, Foxtail, Giant (giant foxtail; [5]): 60; Plant response rating, Foxtail, Giant (giant foxtail; [6]): 60; Plant response rating, Foxtail, Giant (giant foxtail; [7]): 70; Foxtail, Giant plant response rating (giant foxtail; [12]): 80; Plant response rating, Rice (rice): 0; Plant response rating, Kochia (kochia; [5]): 0; Plant response rating, Kochia (kochia; [7]): 0; Kochia plant response rating (kochia; [12]): 0; Plant response rating, Galium (galium; [10]): 0; Plant response rating, Pigweed (pigweed; [5]): 0; Plant response rating, Pigweed (pigweed; [7]): 0; Pigweed plant response rating (pigweed; [12]): 0; Plant response rating, Barnyardgrass (barnyardgrass [2]; [5]): 40; Plant response rating, Barnyardgrass (barnyardgrass [2]; [6]): 60; Plant response rating, Barnyardgrass (barnyardgrass [2]; [7]): 60; Barnyardgrass plant response rating (barnyardgrass [2]; [12]): 80; Plant response rating, Wheat (wheat; [10]): 0; Plant response rating, Blackgrass (blackgrass; [10]): 0; Plant response rating, Blackgrass (blackgrass; [4]): 0; Plant response rating, Ragweed (ragweed; [5]): 0; Plant response rating, Ragweed (ragweed; [7]): 0; Ragweed plant response rating (ragweed; [12]): 0
